Test results: paper PMC4536133 (Antiviral research, 2015)

How the values were obtained:
HSV-1 [1] = assay: Plaque assay of supernatant of HSV-1 infected Vero cells; type: cell-based, herpes simplex virus type 1 (KOS) in Vero cells
HSV-1 [2] = assay: FISH analysis of HSV-1 viral DNA in infected cells; type: cell-based, herpes simplex virus type 1; details: HSV-1 infected cells
HSV-1 [3] = assay: qPCR for HSV-1 DNA copy number in iPSC-neurons; type: cell-based, herpes simplex virus type 1 (KOS) in human iPSC-neurons; details: acutely infected iPSC-neurons, 24hpi, 50 μM; untreated 3,461,970
HSV-1 [4] = assay: Plaque assay of supernatant of reactivated iPSC-neurons titrated on Vero cells; type: cell-based, herpes simplex virus type 1 (KOS) in human iPSC-neurons; details: 5BVdU+IFN-α then drug 48h, NaB reactivation
HSV-1 [5] = assay: Reactivation of quiescent HSV-1 infection in iPSC-neurons, flow cytometry; type: cell-based, herpes simplex virus type 1 (KOS) in human iPSC-neurons; details: compared to vehicle
HSV-1 ICP0 and ICP4 = assay: Immunocytochemistry of HSV-1 immediate early genes ICP0 and ICP4; type: cell-based, herpes simplex virus type 1; details: infected cells
VZV = VZV infection of ARPE-19 cells, luciferase activity; type: cell-based; details: PAA

## CCN(CC)CCCC(C)Nc1ccnc2cc(Cl)ccc12 (centres unmarked) [CQ, chloroquine]
HSV-1 [1]; 50 μM
  infectious particles in supernatant of treated infected cultures (plaque assay): undetectable

## Nc1nc2c(ncn2COCCO)c(=O)[nH]1 [ACV, Acyclovir]
HSV-1 [2]
  viral DNA copy number by FISH: substantial reduction
HSV-1 [3]
  number of copies of viral DNA in 5 ng of total DNA: 483 copies
HSV-1 [4]
  infectious viral particles in supernatant after reactivation: no detectable infectious viral particles
HSV-1 [1]; 50 μM
  infectious particles in supernatant of treated infected cultures (plaque assay): undetectable
HSV-1 [5]
  mean intensity of fluorescence (MFI) after reactivation: lowered
HSV-1 ICP0 and ICP4
  expression of HSV-1 immediate early genes ICP0 and ICP4: markedly reduced expression

## CO/C1=C\C(C)=C\[C@@H](C)[C@@H](O)[C@@H](C)C/C(C)=C/C=C/[C@H](OC)[C@@H]([C@@H](C)[C@@H](O)[C@H](C)[C@@]2(O)C[C@@H](O)[C@H](C)[C@@H](C(C)C)O2)OC1=O [BFLA, bafilomycin A1]
HSV-1 [1]; BFLA 0.1 μM
  infectious particles in supernatant of treated infected cultures (plaque assay): undetectable

## O=C(O)CP(=O)(O)O [PAA, phosphonoacetic acid]
HSV-1 [2]
  viral DNA copy number by FISH: substantial reduction
VZV
  inhibition of VZV infection: effectively inhibited
HSV-1 ICP0 and ICP4
  expression of HSV-1 immediate early genes ICP0 and ICP4: markedly reduced expression
